Experimental data: patent US10858356B2, “Pyrazolopyridine derivative having GLP-1 receptor agonist effect” (Chugai Seiyaku Kabushiki Kaisha, priority 2016, dated 2020)
Where two headings read alike, the source gives them in different places.

What was measured:
Format in all cases: in vivo, cynomolgus monkey
[1] = Pharmacokinetics after oral administration; settings: for Cmax / Tmax / AUC(0-t): male, cynomolgus monkey, plasma, calcium salt hydrate crystal (Sample 162a) suspension, n=2; for AUC(0-t): read-out: AUC0-24 h
Description: The plasma concentrations of the drug were determined by liquid chromatography tandem-mass spectrometry. The lower limit of quantification was 0.3 ng/mL.

[2] = system: male cynomolgus monkeys
[3] = system: male cynomolgus monkeys; experiment: Insulin secretion promoting and blood glucose lowering effects after intravenous glucose
Description: Next, a 50% glucose solution (glucose administration weight to the monkey: 0.5 g/kg) was intravenously administered and a blood sample was collected every 5 min or 10 min to measure the plasma insulin and glucose concentrations. The area under the curve was calculated from the time course of each parameter after the drug administration to evaluate the insulin secretion promoting effect and the blood glucose lowering effect.

[4] = continuous i.v. 40 min, steady-state plasma concentration 0.94 to 4.8 nmol/L, then i.v. glucose 0.5 g/kg, vs vehicle

Structure (SMILES): Cc1cc(-n2nc3c(c2-n2ccn(-c4ccc5c(cnn5C)c4F)c2=O)[C@H](C)N(C(=O)c2cc4cc([C@H]5CCOC(C)(C)C5)ccc4n2[C@@]2(c4noc(=O)[nH]4)C[C@@H]2C)CC3)cc(C)c1F [Example Compound 67, 3-[(1S,2S)-1-[5-[(4S)-2,2-dimethyloxan-4-yl]-2-[(4S)-2-(4-fluoro-3,5-dimethylphenyl)-3-[3-(4-fluoro-1-methylindazol-5-yl)-2-oxoimidazol-1-yl]-4-methyl-6,7-dihydro-4H-pyrazolo[4,3-c]pyridine-5-carbonyl]indol-1-yl]-2-methylcyclopropyl]-4H-1,2,4-oxadiazol-5-one]
- time after oral administration at which plasma concentrations reached Cmax ([1]; all dosages (0.05, 0.15, 0.45 and 1.35 mg/kg), oral): 2 h
- Cmax ([1]; 0.05 mg/kg oral): 4.78 ng/mL
- Tmax ([1]; 0.05 mg/kg oral): 2 h
- AUC(0-t) ([1]; 0.05 mg/kg oral): 23.7 ng·h/mL
- Cmax ([1]; 0.15 mg/kg oral): 20.7 ng/mL
- Tmax ([1]; 0.15 mg/kg oral): 2 h
- AUC(0-t) ([1]; 0.15 mg/kg oral): 135 ng·h/mL
- Cmax ([1]; 0.45 mg/kg oral): 32 ng/mL
- Tmax ([1]; 0.45 mg/kg oral): 2 h
- AUC(0-t) ([1]; 0.45 mg/kg oral): 208 ng·h/mL
- Cmax ([1]; 1.35 mg/kg oral): 148 ng/mL
- Tmax ([1]; 1.35 mg/kg oral): 2 h
- AUC(0-t) ([1]; 1.35 mg/kg oral): 1040 ng·h/mL
- absorption in the intestinal tract and elimination ([1]; oral 0.05 to 1.35 mg/kg): dose-proportionally absorbed in the intestinal tract and eliminated
- degree of suppression of food intake compared with control drug ([2]; oral 0.05 or 0.1 mg/kg vs exenatide s.c. 0.3 or 0.6 μg/kg): almost equivalent to the control drug exenatide
- food intake ([2]; oral, 5 consecutive days, 0.05 or 0.1 mg/kg, food intake for 90 min from 3 h after administration): suppressed the food intake in a dosage dependent manner
- area under the curve of insulin [3, 4]: increase in the area under the curve of insulin
- area under the curve of plasma glucose [3, 4]: decrease in the area under the curve of plasma glucose
- plasma concentration at which insulin secretion promoting and blood glucose lowering effects are equivalent to exenatide ([3]; steady-state plasma concentration, i.v. infusion): ≥ 1.6 nmol/L
